Test results taken from US8198273B2, “Compounds and methods for kinase modulation, and indications therefor” (Plexxikon Inc., priority 2009, dated 2012).

Assays:
A-Raf = biological target: T1, A-Raf (Homo sapiens, UniProt P10398); assay: A-Raf biochemical kinase inhibition (AlphaScreen, biotin-MEK1 substrate); conditions: 100 μM ATP
T1 sequence (P10398 1-606): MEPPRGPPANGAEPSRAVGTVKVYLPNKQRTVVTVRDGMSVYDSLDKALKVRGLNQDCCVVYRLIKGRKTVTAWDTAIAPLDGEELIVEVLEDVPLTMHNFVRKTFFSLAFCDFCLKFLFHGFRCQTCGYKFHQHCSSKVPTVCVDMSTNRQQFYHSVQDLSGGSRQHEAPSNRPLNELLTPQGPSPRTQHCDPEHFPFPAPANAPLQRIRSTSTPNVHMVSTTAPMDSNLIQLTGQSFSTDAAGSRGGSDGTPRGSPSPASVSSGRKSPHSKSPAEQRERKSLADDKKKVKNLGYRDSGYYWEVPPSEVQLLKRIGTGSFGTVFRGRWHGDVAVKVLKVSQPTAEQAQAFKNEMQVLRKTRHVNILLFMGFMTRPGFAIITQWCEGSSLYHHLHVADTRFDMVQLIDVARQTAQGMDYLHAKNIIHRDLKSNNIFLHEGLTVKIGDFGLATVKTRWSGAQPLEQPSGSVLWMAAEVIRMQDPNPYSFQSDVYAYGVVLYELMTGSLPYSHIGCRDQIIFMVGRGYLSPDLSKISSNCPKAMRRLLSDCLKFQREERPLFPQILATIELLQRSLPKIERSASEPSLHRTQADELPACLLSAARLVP
Description: Compounds to be tested are diluted in dimethyl sulfoxide to a concentration of 0.1 mM. These are serially diluted 15 μL into 30 μL of dimethyl sulfoxide seven times in 96 well plates for a total of 8 dilution points, and for each dilution point 1 μL is added to a well of an assay plate. […] The reaction is started with addition of 10 μL of 200 μM ATP (i.e. final 100 μM ATP). […] The plates are incubated for 3 hours at room temperature and read on Envision reader (Perkin Elmer). […] The signal vs. compound concentration is used to determine the IC50.

[1] = Relative solubility by turbidity in aqueous buffers of varying pH; format: physicochemical; conditions: for turbidity threshold (L, M, H) 7.4: HEPES pH 7.4; for turbidity threshold (L, M, H) 4.5: SIF pH 4.5; for turbidity threshold (L, M, H) 6.8: SIF pH 6.8; for turbidity threshold (L, M, H) 1.4: buffer pH 1.4 (SGF)
How it was run: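 Turbidity endpoint: concentration where optical density at 490, 535 and 650 nm exceeds 0.01, three-wavelength average used. Buffers at pH 1.5, 4.5, 6.8 and 7.4; DMSO serial dilutions of 25 mM stock spiked 1 μL into 99 μL buffer. Low <31.3, moderate 31.3–250, high >250 μM.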

CYP3A4(BFC) = CYP3A4(BFC) (Homo sapiens, UniProt P08684); assay: CYP3A4(BFC) inhibition (fluorescent substrate); format: in vitro ADME; conditions: read-out: Cyp IC50 3A4(BFC)
Sequence of CYP3A4(BFC) (P08684 whole entry): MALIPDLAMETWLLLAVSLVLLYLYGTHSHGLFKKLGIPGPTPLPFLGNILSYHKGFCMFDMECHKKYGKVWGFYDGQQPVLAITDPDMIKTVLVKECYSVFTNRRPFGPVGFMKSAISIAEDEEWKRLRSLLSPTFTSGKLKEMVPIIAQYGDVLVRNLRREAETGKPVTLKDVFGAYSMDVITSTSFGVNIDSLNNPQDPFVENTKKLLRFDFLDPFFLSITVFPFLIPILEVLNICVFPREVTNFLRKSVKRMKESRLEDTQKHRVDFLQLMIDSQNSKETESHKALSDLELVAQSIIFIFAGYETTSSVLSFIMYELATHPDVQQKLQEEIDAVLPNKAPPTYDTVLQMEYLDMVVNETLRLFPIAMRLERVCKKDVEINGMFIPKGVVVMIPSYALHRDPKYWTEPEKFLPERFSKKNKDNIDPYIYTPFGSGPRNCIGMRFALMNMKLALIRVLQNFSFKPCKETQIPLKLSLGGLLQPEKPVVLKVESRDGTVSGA
How it was run: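 Inhibition was followed as loss of fluorescent metabolite from a known substrate, with compound in co-factor mix as a 10-point 1:1 serial dilution (100 mM DMSO stock).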

B-Raf = B-Raf (Homo sapiens, UniProt P15056); assay: B-Raf biochemical kinase inhibition (AlphaScreen, biotin-MEK1 substrate); conditions: 100 μM ATP
Sequence of B-Raf (P15056 whole entry): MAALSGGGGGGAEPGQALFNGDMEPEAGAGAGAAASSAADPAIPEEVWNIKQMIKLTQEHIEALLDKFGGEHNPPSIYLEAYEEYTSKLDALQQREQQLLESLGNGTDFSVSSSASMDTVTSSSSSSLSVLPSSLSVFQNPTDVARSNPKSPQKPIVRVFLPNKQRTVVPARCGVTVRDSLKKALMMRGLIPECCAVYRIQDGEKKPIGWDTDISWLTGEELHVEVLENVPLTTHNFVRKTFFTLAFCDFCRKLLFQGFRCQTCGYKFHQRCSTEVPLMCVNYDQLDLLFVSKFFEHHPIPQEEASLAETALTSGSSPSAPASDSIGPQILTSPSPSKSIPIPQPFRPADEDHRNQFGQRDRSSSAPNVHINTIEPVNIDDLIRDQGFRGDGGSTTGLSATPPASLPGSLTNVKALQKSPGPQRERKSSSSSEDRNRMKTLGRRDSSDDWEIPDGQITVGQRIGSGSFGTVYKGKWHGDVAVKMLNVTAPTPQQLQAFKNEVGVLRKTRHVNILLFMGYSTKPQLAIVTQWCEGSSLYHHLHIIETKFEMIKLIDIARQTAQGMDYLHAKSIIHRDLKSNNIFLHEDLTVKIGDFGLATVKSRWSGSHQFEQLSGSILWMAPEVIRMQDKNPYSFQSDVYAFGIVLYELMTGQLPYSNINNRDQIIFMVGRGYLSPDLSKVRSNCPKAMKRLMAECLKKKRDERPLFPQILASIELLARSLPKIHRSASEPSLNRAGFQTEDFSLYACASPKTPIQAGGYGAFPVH
How it was run: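 Raf kinases phosphorylating biotin-MEK1, reaction started with ATP at 100 μM final. Compounds tested at 8 points by serial dilution from a 0.1 mM DMSO stock.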

IC50 (A-Raf) [nM] | IC50 (CYP3A4(BFC)) [nM] | IC50 (B-Raf) [nM] | SMILES | turbidity threshold (L, M, H) 7.4 [1] | turbidity threshold (L, M, H) 4.5 [1] | turbidity threshold (L, M, H) 6.8 [1] | turbidity threshold (L, M, H) 1.4 [1]
< 10 | 5000 to 10000 | < 10 | O=C(c1c(F)ccc(NS(=O)(=O)c2cc(F)ccc2F)c1F)c1c[nH]c2nccc(Cl)c12 [P-2018, N-[3-(4-Chloro-1H-pyrrolo[2,3-b]pyridine-3-carbonyl)-2,4-difluoro-phenyl]-2,5-difluoro-benzenesulfonamide] | M (moderate solubility if the threshold concentration is 31.3 μM to 250 μM) | M (moderate solubility if the threshold concentration is 31.3 μM to 250 μM) | M (moderate solubility if the threshold concentration is 31.3 μM to 250 μM) | L (low solubility if the threshold concentration is <31.3 04)
< 10 | > 10000 | < 100 | Cc1cnc2[nH]cc(C(=O)c3c(F)ccc(NS(=O)(=O)c4ccccc4F)c3F)c2c1 [P-2014, N-[2,4-Difluoro-3-(5-methyl-1H-pyrrolo[2,3-b]pyridine-3-carbonyl)-phenyl]-2-fluoro-benzenesulfonamide] | M (moderate solubility if the threshold concentration is 31.3 μM to 250 μM) | M (moderate solubility if the threshold concentration is 31.3 μM to 250 μM) | M (moderate solubility if the threshold concentration is 31.3 μM to 250 μM) | L (low solubility if the threshold concentration is <31.3 04)
< 10 | > 10000 | < 100 | COc1cnc2[nH]cc(C(=O)c3c(F)ccc(NS(=O)(=O)c4cc(F)ccc4F)c3F)c2c1 [P-2010, N-[2,4-Difluoro-3-(5-methoxy-1H-pyrrolo[2,3-b]pyridine-3-carbonyl)-phenyl]-2,5-difluoro-benzenesulfonamide] | M (moderate solubility if the threshold concentration is 31.3 μM to 250 μM) | L (low solubility if the threshold concentration is <31.3 04) | M (moderate solubility if the threshold concentration is 31.3 μM to 250 μM) | L (low solubility if the threshold concentration is <31.3 04)
< 10 | < 5000 | < 10 | CCCS(=O)(=O)Nc1ccc(F)c(C(=O)c2c[nH]c3ncc(-c4ccc(OCCCN5CCOCC5)nc4)cc23)c1F [P-2236, Propane-1-sulfonic acid (2,4-difluoro-3-{5-[6-(3-morpholin-4-yl-propoxy)-pyridin-3-yl]-1H-pyrrolo[2,3-b]pyridine-3-carbonyl}-phenyl)-amide] | L (low solubility if the threshold concentration is <31.3 04) | M (moderate solubility if the threshold concentration is 31.3 μM to 250 μM) | L (low solubility if the threshold concentration is <31.3 04) | M (moderate solubility if the threshold concentration is 31.3 μM to 250 μM)
< 10 | > 10000 | < 100 | Cc1cnc2[nH]cc(C(=O)c3c(F)ccc(NS(=O)(=O)c4cccc(F)c4)c3F)c2c1 [P-2016, N-[2,4-Difluoro-3-(5-methyl-1H-pyrrolo[2,3-b]pyridine-3-carbonyl)-phenyl]-3-fluoro-benzenesulfonamide] | M (moderate solubility if the threshold concentration is 31.3 μM to 250 μM) | L (low solubility if the threshold concentration is <31.3 04) | M (moderate solubility if the threshold concentration is 31.3 μM to 250 μM) | H (high solubility if the threshold concentration is >250 μM)
< 10 | > 10000 | < 10 | O=C(c1c(F)ccc(NS(=O)(=O)c2cc(F)ccc2F)c1F)c1c[nH]c2ncc(Cl)cc12 [P-2002, N-[3-(5-Chloro-1H-pyrrolo[2,3-b]pyridine-3-carbonyl)-2,4-difluoro-phenyl]-2,5-difluoro-benzenesulfonamide] | M (moderate solubility if the threshold concentration is 31.3 μM to 250 μM) | L (low solubility if the threshold concentration is <31.3 04) | M (moderate solubility if the threshold concentration is 31.3 μM to 250 μM) | L (low solubility if the threshold concentration is <31.3 04)
< 10 | > 10000 | < 10 | CCCS(=O)(=O)Nc1ccc(F)c(C(=O)c2c[nH]c3ncc(-c4ccc(OCCCN5CCCC5)nc4)cc23)c1F [P-2235, Propane-1-sulfonic acid (2,4-difluoro-3-{5-[6-(3-pyrrolidin-1-yl-propoxy)-pyridin-3-yl]-1H-pyrrolo[2,3-b]pyridine-3-carbonyl}-phenyl)-amide] | L (low solubility if the threshold concentration is <31.3 04) | M (moderate solubility if the threshold concentration is 31.3 μM to 250 μM) | L (low solubility if the threshold concentration is <31.3 04) | L (low solubility if the threshold concentration is <31.3 04)
< 10 | > 10000 | < 10 | CCCS(=O)(=O)Nc1cccc(C(=O)c2c[nH]c3ncc(-c4cnc(N(C)C)nc4)cc23)c1F [P-2408, Propane-1-sulfonic acid {3-[5-(2-dimethylamino-pyrimidin-5-yl)-1H-pyrrolo[2,3-b]pyridine-3-carbonyl]-2-fluoro-phenyl}-amide] | L (low solubility if the threshold concentration is <31.3 04) | L (low solubility if the threshold concentration is <31.3 04) | L (low solubility if the threshold concentration is <31.3 04) | L (low solubility if the threshold concentration is <31.3 04)
< 10 | > 10000 | < 100 | CCCS(=O)(=O)Nc1cccc(C(=O)c2c[nH]c3ncc(-c4cnc(OC)nc4)cc23)c1F [P-2407, Propane-1-sulfonic acid {2-fluoro-3-[5-(2-methoxy-pyrimidin-5-yl)-1H-pyrrolo[2,3-b]pyridine-3-carbonyl]-phenyl}-amide] | L (low solubility if the threshold concentration is <31.3 04) | L (low solubility if the threshold concentration is <31.3 04) | L (low solubility if the threshold concentration is <31.3 04) | L (low solubility if the threshold concentration is <31.3 04)
< 10 | > 10000 | < 10 | CCCS(=O)(=O)Nc1ccc(F)c(C(=O)c2c[nH]c3ncc(-c4ccc(OCCN5CCCC5)nc4)cc23)c1F [P-2233, Propane-1-sulfonic acid (2,4-difluoro-3-{5-[6-(2-pyrrolidin-1-yl-ethoxy)-pyridin-3-yl]-1H-pyrrolo[2,3-b]pyridine-3-carbonyl}-phenyl)-amide] | M (moderate solubility if the threshold concentration is 31.3 μM to 250 μM) | M (moderate solubility if the threshold concentration is 31.3 μM to 250 μM) | L (low solubility if the threshold concentration is <31.3 04) | L (low solubility if the threshold concentration is <31.3 04)
< 10 | 5000 to 10000 | < 10 | O=C(c1c(F)ccc(NS(=O)(=O)c2cccc(F)c2)c1F)c1c[nH]c2nccc(Cl)c12 [P-2019, N-[3-(4-Chloro-1H-pyrrolo[2,3-b]pyridine-3-carbonyl)-2,4-difluoro-phenyl]-3-fluoro-benzenesulfonamide] | M (moderate solubility if the threshold concentration is 31.3 μM to 250 μM) | M (moderate solubility if the threshold concentration is 31.3 μM to 250 μM) | M (moderate solubility if the threshold concentration is 31.3 μM to 250 μM) | L (low solubility if the threshold concentration is <31.3 04)
